# Data: patent publication US11723894B2, “Combination product for the treatment of neurological and/or psychiatric disorders” (Consejo Superior de Investigaciones Cientificas (CSIC), priority 2017, dated 2023)
# Experiments:
# [1] = tested on: dopaminergic neurons of the Substantia nigra pars compacta; assay: 6-OHDA in vivo model of Parkinson's Disease (injection into Substantia nigra pars compacta); set-up: species or system C57BL/6 mice; details: 0.1 μg DMT co-injected with 5 μg 6-OHDA into SNpc, 3 weeks
# Experimental: Example 10: DMT administration prevents dopaminergic cell death in a in vivo model of Parkinson's disease. Adult male C57BL/6 mice (8-12 weeks old) were used in this study. Animals were properly anaesthetized and placed in a stereotaxic apparatus (Kopf Instruments, CA). 6-OHDA (5 μg in […] PBS) was injected into the right side of the Substantia nigra pars compacta (SNpc) (coordinates from Bregma: posterior −3.2 mm; lateral +2.0 mm; ventral: +4.7 mm, according to the atlas of Paxinos and Franklin, The Mouse Brain in Stereotaxic Coordinates. 4. San Diego: Academic Press; 2012). Control animals of the same age were injected with PBS. A third group received an injection with 6-OHDA (5 μg) combined with DMT (0.1 μg) in […] PBS. Mice were then housed individually to recover and sacrificed 3 weeks later. At this point animals were anaesthetized and perfused transcardially with a 4% paraformaldehyde solution. The brains were removed, postfixed in the same solution at 4° C. overnight, cryoprotected in 20% sucrose, frozen, and 30 μm coronal sections were obtained in a cryostat. Free-floating sections were processed for double fluorescent immunohistochemistry. […] Neuronal integrity and specifically dopaminergic cell death was assessed by counting the percentage of TH^+ cells in the SNpc following a stereological approach. […] Images were analyzed using computer-assisted image analysis software (Soft Imaging System Corporation, Lakewood, Colo.). Results were expressed as the percentage of dopaminergic cell loss in the SNpc.
# [2] = tested on: Human SH-SY5Y dopaminergic cells; assay: 6-OHDA in vitro model of Parkinson's Disease, cell viability (MTT); type: cell-based; details: tryptamine 1 μM 1 h, then 6-OHDA 30 μM 24 h
# Excerpt: Example 9: DMT, DET, DPT and 5-MeO-DMT prevent dopaminergic cell death and inflammation (Only Measured for DMT) caused by the potent and selective dopaminergic toxin 6-OHDA in an in vitro model of Parkinson's Disease. These desired effects are preserved in the presence of the 5-HT2A antagonist Ritanserin (Rit). The Human SH-SY5Y dopaminergic cell line was obtained from Sigma-Aldrich, cultured in 96-well plates and propagated in RPMI medium containing glutamine (1%) and 15% of fetal bovine serum (FBS) plus antibiotic (gentamicin), under humidified 5% CO2 and 95% air. On attaining semiconfluence, separate groups of cells were treated with either: a) one of the four hallucinogenic tryptamines at 1 μM for 1 h, followed by 6-OHDA at 30 μM for 24 hours; or b) Rit at 1 μM for 1h, followed one of the four hallucinogenic tryptamines at 1 μM for an additional hour, at which point 6-OHDA was administered, also at 30 μM, and kept for 24 hours. Vehicle-treated cultures were used as controls. Cell cultures were then processed to assess cell viability (for all four tryptamines) and quantification of nitrite concentration (only performed in the DMT and DMT+Rit tests). Cell viability was measured using the MTT assay (Roche Diagnostic, GmbH), which is based on the ability of viable cells to reduce yellow MTT to blue formazan. After the aforementioned 24 h period in the presence of the different tryptamines or the respective tryptamine+Rit combinations, cells were incubated with MTT (0.5 mg/ml, 4 h) and subsequently solubilized in 10% SDS/0.01 M HCl for 12 h in the dark. The extent of MTT reduction was quantified by absorbance measurement at the 595 nm wavelength, as indicated in the instructions provided by the manufacturer. Nitrite quantification: Due to access to equipment problems at the time the experiments with DET, DPT and 5-MeO-DMT were conducted, the assessment of nitrite levels in the medium could only be done for the DMT experiments. These determinations were carried out as described in Example 8. Results from the cell viability tests are expressed as the percentage of viable dopaminergic cells measured. Results from nitrite determinations are expressed as actual concentrations (μM). Results from both techniques are presented in bar graphs.
# [3] = tested on: subgranular zone of the hippocampus; assay: Long-term (21 days) in vivo neurogenesis in the subgranular zone of the hippocampus (BrdU/NeuN, BrdU/DCX); set-up: species or system C57BL/6 mice
# Experimental: Adult male C57BL/6 mice (obtained from Charles River Labs, Barcelona, Spain) were injected every other day for 3 weeks with DMT (0.1 μg/animal), alone or in combination with the selective Sigma-1 BD1063 antagonist (BD, 0.2 μg/animal, Sigma, Catalog number SML0276), the mixed 5-HT2A/1A receptor antagonist methiothepin (Met, 0.2 μg/animal, Sigma, Catalog number M149), or the selective 5-HT1A receptor antagonist WAY100635 (WAY, 0.2 μg/animal, ABCAM catalog number ab120550). On day 1 of treatment, animals were intraperitoneally injected with the proliferation marker 5-bromo-2-deoxyuridine (BrdU, 50 mg/kg, Sigma, Catalog number B5002) and sacrificed on day 21. Following anesthesia, the animals were perfused transcardially with 4% paraformaldehyde, and the brains obtained and post-fixed in the same solution at 4-8° C. overnight. They were subsequently cryoprotected, frozen, and finally cut into 30 μm coronal sections in a cryostat. Free-floating sections were immunostained using immunofluorescence analysis. For BrdU detection, samples were first incubated with 2 M HCl for 30 minutes at 37° C. before blocking 1 hour in PBS containing 5% normal serum, 0.1 M lysine, and 0.1% Triton X-100. Sections were then incubated with anti-BrdU mouse monoclonal antibody (DAKO, Barcelona, Spain, Catalog number M0744) combined with a neuronal marker, anti-neuN rabbit antibody (Abcam, Cambridge, UK. Catalog number ABN78) or an anti-double courtin (DCX) goat antibody (Santa Cruz Biotech. USA) at 4° C. overnight, washed three times and incubated with Alexa Fluor-488 goat anti-mouse and Alexa 647-goat anti-rabbit or -horse anti-goat secondary antibodies (Molecular Probes, Madrid, Spain), respectively, for 1 hour at room temperature. After rinses, sections were mounted with Vectashield.
structure (smiles),measurement,setting,value
"CN(C)CCc1c[nH]c2ccccc12 [DMT, N,N-dimethyltryptamine]",average percentage of dopaminergic cell loss in the SNpc,[1],10%
same,decrease in dopaminergic neurons and increase in activated astroglial and microglial cells (images),[1],virtually absent
same,reduction in dopaminergic cell death in the presence of Ritanserin,[2]; Rit 1 μM 1 h,maintained
same,percentage of viable dopaminergic neurons,[2]; vs 6-OHDA alone,significant increases
same,double BrdU-NeuN stained cells (new neurons),"[3]; DMT 0.1 μg/animal every other day for 3 weeks, sacrificed day 21",increase
same,number of newly generated neurons as compared to basal,"[3]; FIG. 6 legend, printed as after 5 days of DMT administration",doubled
